Data on 7 compounds can be found in patent US20250230193A1, “CYCLIC COMPOUND HAVING SELECTIVE KRAS INHIBITORY EFFECT ON HRAS AND NRAS” (CHUGAI SEIYAKU KABUSHIKI KAISHA, priority 2022, published 2025).

Experiment [1] concerns the target GDP-bound NRAS wild-type protein (Homo sapiens, UniProt P01111). Kind of experiment: Binding to NRAS by surface plasmon resonance (SPR), Single Cycle Kinetics. Conditions: for NRAS/KRAS (ratio of KD value with respect to GDP-bound NRAS wild-type protein to KD value with respect to KRAS): class symbols; for NRAS/KRAS (ratio of KD value with respect to NRAS to KD value with respect to KRAS): GDP-bound NRAS wild-type vs GDP-bound KRAS wild-type.

Experiment [2] addresses GDP-bound HRAS wild-type protein (Homo sapiens, UniProt P01112). In words: Binding to HRAS by surface plasmon resonance (SPR), Single Cycle Kinetics. Conditions: for HRAS/KRAS (ratio of KD value with respect to GDP-bound HRAS wild-type protein to KD value with respect to KRAS): class symbols; for HRAS/KRAS (ratio of KD value with respect to HRAS to KD value with respect to KRAS): GDP-bound HRAS wild-type vs GDP-bound KRAS wild-type. Background: In SPR one partner is held on a chip, and binding of the other changes the refractive index at the surface.

*1 amine or outer side, *2 acyl side, *3 side chain or, on linkers, in order; H or OH if unused. Where a SMILES comes first, the peptide text is derived from it. Bridges are numbered along the chain shown (N, C = ends). [ ]: non-standard residue; d: D form. The star is where a group is joined. hPhe(3-Cl-4-CF3) = N[C@@H](CCc1ccc(C(F)(F)F)c(Cl)c1)C(=O)O; X23 = CC(C)CN([C@@H](Cc1ccc(C(F)(F)F)cc1)C(=O)[*:2])[*:1]; NPrPhe(4-CF3) = CCCN[C@@H](Cc1ccc(C(F)(F)F)cc1)C(=O)O; NMeGly(cPent) = CN[C@H](C(=O)O)C1CCCC1; Gly(cBu) = N[C@H](C(=O)O)C1CCC1; NMeD = CN[C@@H](CC(=O)O)C(=O)O; NMeL = CN[C@@H](CC(C)C)C(=O)O; Morpholide = C1CN(*)CCO1; Ac5c = NC1(C(=O)O)CCCC1; NEtG = CCNCC(=O)O; Sar = CNCC(=O)O

GDP-bound HRAS wild-type protein, sequence (P01112 whole entry): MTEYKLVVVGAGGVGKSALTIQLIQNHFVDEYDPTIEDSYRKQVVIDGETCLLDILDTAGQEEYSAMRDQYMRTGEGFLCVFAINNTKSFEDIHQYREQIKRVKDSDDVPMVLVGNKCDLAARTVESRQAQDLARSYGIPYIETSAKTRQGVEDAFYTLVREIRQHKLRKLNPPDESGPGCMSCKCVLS
GDP-bound NRAS wild-type protein, sequence (P01111 whole entry): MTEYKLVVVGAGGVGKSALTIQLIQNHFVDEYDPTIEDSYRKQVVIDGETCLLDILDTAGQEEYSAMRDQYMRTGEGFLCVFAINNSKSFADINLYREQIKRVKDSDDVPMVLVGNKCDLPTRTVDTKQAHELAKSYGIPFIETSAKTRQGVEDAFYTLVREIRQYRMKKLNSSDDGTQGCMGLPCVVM

Regarding `CCC[C@H]1C(=O)N[C@@H](CC(C)C)C(=O)N(CC)CC(=O)N(C)[C@H]2C/C=C\CCN(C2=O)[C@@H](Cc2ccc(C)cc2)C(=O)N(C)CC(=O)N[C@@H](CCc2ccc(C(F)(F)F)c(Cl)c2)C(=O)N2C[C@H](OCC)C[C@H]2C(=O)NC2(CC(C)(C)C2)C(=O)N(C)[C@@H](C2CCCC2)C(=O)N(C)[C@H](C(=O)N(C)C)CC(=O)N1C` [PP2528], the “NRAS/KRAS (ratio of KD value with respect to GDP-bound NRAS wild-type protein to KD value with respect to KRAS)” value in experiment [1] is “A (a compound having 10 or more and less than 20 is denoted as A)”. Besides, in experiment [2], the “HRAS/KRAS (ratio of KD value with respect to GDP-bound HRAS wild-type protein to KD value with respect to KRAS)” value is “B (a compound having 3 or more and less than 10 is denoted as B)”.
As for `CCCN1C(=O)CN(C)C(=O)CN(CC)C(=O)[C@H](C2CCC2)NC(=O)[C@H](CC(C)C)N(C)C(=O)C[C@@H](C(=O)N2CCOCC2)N(C)C(=O)[C@H](C2CCCC2)N(C)C(=O)C2(CCCC2)NC(=O)[C@@H]2CCCN2C(=O)[C@H](CCc2ccc(C(F)(F)F)c(Cl)c2)NC(=O)CN(C)C(=O)[C@@H]1Cc1ccc(C(F)(F)F)cc1` [PP0292] ([NMeL][Gly(cBu)][NEtG][Sar][NPrPhe(4-CF3)][Sar][hPhe(3-Cl-4-CF3)]P[Ac5c][NMeGly(cPent)][NMeD]-Morpholide; lactam N-11), the “NRAS/KRAS (ratio of KD for GDP-bound NRAS wild-type to KD for KRAS)” value in experiment [1] (SPR) is “B (a compound having 3 or more and less than 10 is denoted as B)”. Further, the “HRAS/KRAS (ratio of KD for GDP-bound HRAS wild-type to KD for KRAS)” value in experiment [2] (SPR) is “C (A compound having a KD ratio of 0.1 or more and less than 3 is denoted as C)”.
Consider `CCO[C@@H]1C[C@H]2C(=O)NC3(CCC3)C(=O)N(C)[C@@H](C3CCCC3)C(=O)N(C)[C@H](C(=O)N(C)CC)CC(=O)N(C)[C@@H](CC)C(=O)N[C@@H]([C@@H](C)CC)C(=O)N(C)CC(=O)N(C)[C@H]3C/C=C\CCN(C3=O)[C@@H](CC3CCC(F)(F)CC3)C(=O)N(C)CC(=O)N[C@@H](CCc3cc(F)c(C(F)(F)F)c(F)c3)C(=O)N2C1` [PP1553], for which, in experiment [1] (SPR, KD ratio class), the “NRAS/KRAS (ratio of KD value for GDP-bound NRAS wild-type protein to KD value for KRAS)” value was “A (a compound having 10 or more and less than 20 is denoted as A)”. The “HRAS/KRAS (ratio of KD value for GDP-bound HRAS wild-type protein to KD value for KRAS)” value in experiment [2] (SPR, KD ratio class) is “A (a compound having 10 or more and less than 20 is denoted as A)”.
On to `CCO[C@@H]1C[C@H]2C(=O)NC3(CC(C)(C)C3)C(=O)N(C)[C@@H](C(CC)CC)C(=O)N(C)[C@H](C(=O)N(C)C)CC(=O)N(C)[C@@H](COC)C(=O)N[C@@H]([C@@H](C)CC)C(=O)N(C3CC3)CC(=O)N(C)[C@H]3C/C=C\CCN(C3=O)[C@@H](CC3CCC(F)(F)CC3)C(=O)N(C)CC(=O)N[C@@H](CCc3cc(F)c(C(F)(F)F)c(F)c3)C(=O)N2C1` [PP2568], for which, in experiment [1], the “NRAS/KRAS (ratio of KD value with respect to GDP-bound NRAS wild-type protein to KD value with respect to KRAS)” value is “A (a compound having 10 or more and less than 20 is denoted as A)”. Besides, the “HRAS/KRAS (ratio of KD value with respect to GDP-bound HRAS wild-type protein to KD value with respect to KRAS)” value in experiment [2] is “B (a compound having 3 or more and less than 10 is denoted as B)”.
On to `CCO[C@@H]1C[C@H]2C(=O)NC3(CCC3)C(=O)N(C)[C@@H]([C@@H](C)CC)C(=O)N(C)[C@H](C(=O)N(C)C)CC(=O)N(C)[C@@H](CC)C(=O)N[C@@H]([C@@H](C)CC)C(=O)N(C)CC(=O)N(C)[C@H]3C/C=C\CCN(C3=O)[C@@H](Cc3ccc(C(F)(F)F)cc3)C(=O)N(C)CC(=O)N[C@@H](CCc3cc(F)c(C(F)(F)F)c(F)c3)C(=O)N2C1` [PP1087], for which the “NRAS/KRAS (ratio of KD value with respect to NRAS to KD value with respect to KRAS)” value in experiment [1] (KD ratio, SPR) was “A (a compound having 10 or more and less than 20 is denoted as A)”. Moreover, the “HRAS/KRAS (ratio of KD value with respect to HRAS to KD value with respect to KRAS)” value in experiment [2] (KD ratio, SPR) was “A (a compound having 10 or more and less than 20 is denoted as A)”.
On to `CC[C@H](C)[C@@H]1NC(=O)[C@H](CC(C)C)N(C)C(=O)C[C@@H](C(=O)N2CCOCC2)N(C)C(=O)[C@H](C2CCCC2)N(C)C(=O)C2(CCCC2)NC(=O)[C@@H]2CCCN2C(=O)[C@H](CCc2ccc(C(F)(F)F)c(Cl)c2)NC(=O)CN(C)C(=O)[C@H](Cc2ccc(C(F)(F)F)cc2)N(CC(C)C)C(=O)CN(C)C(=O)CN(C)C1=O` [PP0121] ([NMeL]I[Sar][Sar][X23][Sar][hPhe(3-Cl-4-CF3)]P[Ac5c][NMeGly(cPent)][NMeD]-Morpholide; lactam N-11), for which the “NRAS/KRAS (ratio of KD for GDP-bound NRAS wild-type to KD for KRAS)” value in experiment [1] (SPR) is “C (A compound having a KD ratio of 0.1 or more and less than 3 is denoted as C)”. Further, the “HRAS/KRAS (ratio of KD for GDP-bound HRAS wild-type to KD for KRAS)” value in experiment [2] (SPR) was “C (A compound having a KD ratio of 0.1 or more and less than 3 is denoted as C)”.
`CCO[C@@H]1C[C@H]2C(=O)NC3(CC(C)(C)C3)C(=O)N(C)[C@@H](C(CC)CC)C(=O)N(C)[C@H](C(=O)N(C)C)CC(=O)N(C)[C@@H](COC)C(=O)N[C@@H]([C@@H](C)CC)C(=O)N(C)CC(=O)N(C)[C@H]3C/C=C\CCN(C3=O)[C@@H](CC3CCC(F)(F)CC3)C(=O)N(C)CC(=O)N[C@@H](CCc3ccc(C(F)(F)F)c(OC)c3)C(=O)N2C1` [PP2438]: in experiment [1] (SPR), the “NRAS/KRAS (ratio of KD value with respect to NRAS to KD value with respect to KRAS)” value is “A (a compound having 10 or more and less than 20 is denoted as A)”. In addition, in experiment [2] (SPR), the “HRAS/KRAS (ratio of KD value with respect to HRAS to KD value with respect to KRAS)” value is “A (a compound having 10 or more and less than 20 is denoted as A)”.
